Measurements from patent US4794125A, “Compounds having an immunizing activity” (CL Pharma AG, priority 1984, dated 1988).

Tested on: delayed-type hypersensitivity
Assay: DTH test (delayed-type hypersensitivity in mice), topical sensitization with oxazolone
Type: in vivo
Details: dose 1.0 mg/kg; OF-1 mice; topical sensitization with ethanol oxazolone solution
Experimental: The compounds prepared in accordance with the invention were investigated using the DTH test (delayed-type hypersensitivity in mice) according to Dietrich, F. M. & Hess, R.: Hypersensitivity in mice.
The new compounds (2,6-bis-MAA=2,6-bis-/(methylamino)-acetylamino/-anthraquinone), CS-A=cyclosporin A, were tested in vivo in OF-1 mice by topical sensitization with antigen (ethanol oxazolone solution). The decrease in the inflammatory response versus untreated animals is expressed as % inhibition.

CNCC(=O)Nc1ccc2c(c1)C(=O)c1ccc(NC(=O)CNC)cc1C2=O [2,6-bis-MAA, 2,6-bis-(methylamino)-acetylamino-anthraquinone]
% Inhibition (decrease in the inflammatory response versus untreated animals): 35%
